Test results published in the supplement of paper PMC8671470.
± gives the standard deviation of the averaged measurements.

Key:
Settings in all cases: 72 h
[1] = system: MV4-11; test: cell viability (% survival relative to DMSO control, bortezomib = 0%); higher = less cytotoxic
In short: (§1)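 Percent survival is reported as the mean of duplicate wells. Cells from 10 AML and 5 CML lines were plated in 384-well plates containing compounds at 1, 10, 100, 1000 or 10000 nM and kept for 72 h at 37 °C in 5% CO2. Readout used CellTiter-Glo luminescence, scaled so that vehicle equals 100% and a 10 µM positive control equals 0%.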

[2] = system: K-562; test: as above
In short: as §1

[3] = system: NOMO-1; test: as above
In short: as §1

[4] = system: KCL-22; test: as above
In short: as §1

[5] = system: SHI-1; test: as above
In short: as §1

[6] = system: LAMA-84; test: as above
In short: as §1

[7] = system: ML-2; test: as above
In short: as §1

[8] = system: Mono-Mac-6; test: as above
In short: as §1

[9] = system: KG-1; test: as above
In short: as §1

[10] = system: BV-173; test: as above
In short: as §1

[11] = system: THP-1; test: as above
In short: as §1

[12] = system: HEL; test: as above
In short: as §1

[13] = system: HL-60; test: as above
In short: as §1

[14] = system: MOLM-13; test: as above
In short: as §1

[15] = system: KU-812; test: as above
In short: as §1

[16] = system: NOMO-1
In short: (§2)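 Seeded in RPMI 1640 at densities within the linear growth range, fifteen myeloid leukaemia cell lines were dispensed into 384-well plates with acoustically pre-printed compounds spanning five tenfold doses from 1 to 10,000 nM, in duplicate. The plates were kept for 72 h at 37 °C in 5% CO2 before luminescent ATP viability was measured and normalised to vehicle and to a positive control at 10 µM. Curves were fitted with a four-parameter log-logistic model. The IC50 was taken from those curves.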

[17] = system: KCL-22
In short: as §2

[18] = system: ML-2
In short: as §2

[19] = system: KG-1
In short: as §2

[20] = system: HL-60
In short: as §2

[21] = system: HL-60; test: cell viability (% survival relative to DMSO control); higher = less cytotoxic
In short: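 HL-60 cells grown in RPMI 1640 with 10% FBS were rescreened against the full library in 384-well plates, in duplicate, at five tenfold concentrations from 1 to 10,000 nM, alongside DMSO or 100 nM of one of three metabolic inhibitors for 72 h at 37 °C, 5% CO2. Reference wells contained DMSO or 10 μM proteasome inhibitor. Viability was read with CellTiter-Glo and normalised to these reference wells, and where reported, area under the curve was taken from four-parameter log-logistic fits in drc and PharmacoGx.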

CCOC(=O)c1sc(NC(=O)c2ccco2)c(SC#N)c1C [CBR-5884]
cell viability [%]
Settings	1 nM	10 nM	100 nM	1000 nM	10000 nM
[1]	79.9	96.3	116	88.3	51.1
[2]	89.9	105	92.7	88.9	83.7
[3]	99.8	104	97.4	100	94.5
[4]	110	85.5	107	105	94.6
[5]	90.4	87.1	102	103	81.3
[6]	89.2	102	103	102	99.1
[7]	94.5	97.2	104	99.3	60.5
[8]	94.9	111	102	103	91.1
[9]	90.5	83.3	103	94.3	74.9
[10]	100	111	87.5	105	80
[11]	102	97.1	98.1	94.4	100
[12]	102	102	98.2	104	86.5
[13]	103	102	89.5	92.7	59.4
[14]	97.2	82.9	112	97.3	81.4
[15]	93.5	101	109	94.8	88.3

Settings	IC50 (cell viability) [µM]
[16]	> 10
[17]	> 10
[18]	> 10
[19]	> 10
[20]	> 10

cell viability [%], [21]
Settings	0.001 µM	0.01 µM	0.1 µM	1 µM	10 µM
co-treatment: AZD3965 100 nM	107.6 ± 1	103 ± 1.6	93.2 ± 23	106 ± 3.2	102 ± 6.6
co-treatment: DMSO vehicle	104 ± 1.5	102 ± 2.5	98.9 ± 5.8	105 ± 2.1	100.8 ± 0.41
co-treatment: GSK2194069 100 nM	97.6 ± 3.5	98.31 ± 0.17	90.6 ± 12	98.2 ± 3.5	103 ± 3.9
co-treatment: pictilisib 100 nM	107 ± 3.1	101 ± 3.1	81.8 ± 26	101 ± 11	88 ± 4.2

OC[C@H]1O[C@@H](n2cnc3c2N=CNC[C@H]3O)C[C@@H]1O [Pentostatin]
cell viability [%]
Settings	1 nM	10 nM	100 nM	1000 nM	10000 nM
[1]	95.8	104	107	105	103
[2]	95.3	106	111	99.2	107
[3]	105	94.3	113	98.8	106
[4]	99.1	89.9	101	94.3	105
[5]	93.9	100	94.5	100	111
[6]	102	99.6	111	101	108
[7]	99.2	86.6	99.1	108	123
[8]	104	94.2	105	91.9	99.3
[9]	101	104	97.9	108	97.8
[10]	102	97.4	117	94.5	101
[11]	102	93.5	111	98.3	103
[12]	105	89.4	102	103	142
[13]	99.5	99.7	98.2	100	118
[14]	86.9	99.7	101	110	114
[15]	96.4	99.5	112	95.1	115

Settings	IC50 (cell viability) [µM]
[16]	> 10
[17]	> 10
[18]	> 10
[19]	> 10
[20]	> 10

cell viability [%], [21]
Settings	0.001 µM	0.01 µM	0.1 µM	1 µM	10 µM
co-treatment: AZD3965 100 nM	97.8 ± 3.3	105 ± 3.7	100 ± 3.5	102 ± 2.8	100.2 ± 0.14
co-treatment: DMSO vehicle	92.3 ± 12	105 ± 7.4	94.9 ± 6.3	106 ± 2.7	102 ± 2.5
co-treatment: GSK2194069 100 nM	86.6 ± 13	101 ± 2.8	98.8 ± 2.3	101 ± 4.7	93.96 ± 0.9
co-treatment: pictilisib 100 nM	89.2 ± 4.1	102 ± 3.8	91.2 ± 1.8	103 ± 7.5	96.2 ± 1.8
